Experimental data: patent publication US20100016335A1, “NOVEL AMINOPYRIDINE DERIVATIVES HAVING AURORA A SELECTIVE INHIBITORY ACTION” (priority 2006, published 2010)
Where a name gives a salt, the structure may show the parent alone.

Assays:
[1] = system: Human cervical cancer cells (HeLa S3); assay: Effect by combined use of drugs in cells (docetaxel), WST-8 method; format: cell-based; conditions: HeLa S3, three days; for inhibition at 0.3 µM: compound 0.3 μM alone; for inhibition at 1 µM: compound 1.0 μM alone; for inhibition at 0.1 µM: compound 0.1 μM alone
Method: Fetal calf serum (FCS) was purchased from Moregate Biotech, DMEM medium from Invitrogen Corp., docetaxel (tradename: Taxere) from Sigma-Aldrich, Inc., and WST-8 from Kishida Chemical Co., Ltd.
(§1) Human cervical cancer cells (HeLa S3) were obtained from the American Type Culture Collection (ATCC).
Cells were suspended in a DMEM medium containing 10% FCS, and the cell suspension was dispensed to two 96-well plastic plates at a rate of 750 cells/100 microliters per well. The plates were incubated overnight in 5% CO2-95% air at 37° C. A drug was subjected to graded dilution in dimethylsulfoxide and further diluted with DMSO or with a DMEM medium containing 10% FCS and also containing 0.6 nM docetaxel. Then, the dilutions were each dispensed to one of the plates on which cells had been disseminated in advance, at a rate of 100 microliters per well. The final concentration of docetaxel at this stage was 0.3 nM. Also, the concentrations in the case of sole administration of the compound according to the invention were 0.003, 0.01, 0.03, 0.1, 0.3, 1, 3 and 10 μM. The plates were incubated for further three days in 5% CO2-95% air at 37° C. Cell growth after incubation was measured by the WST-8 method (H. Tominaga, et al., Anal. Commun., 36, 47-50 (1999)). Here, the WST-8 method refers to a method in which 20 microliters of a WST-8 reagent solution is added to each well, incubation is conducted at 37° C. for 60 minutes, the plate is stirred, and the amount of formazan produced is measured by a colorimetric method to determine the inhibitory rate of the drug. The growth inhibitory effects of docetaxel and of the compound according to the invention were determined, with the value obtained in sole treatment of DMSO being defined as 0%.

[2] = target: T1, human Aurora A (Homo sapiens, UniProt O14965); assay: Aurora A inhibitory activity (IMAP fluorescence polarization phosphorylation assay); format: biochemical; conditions: 20 μM ATP, 30° C., 120 minutes
T1 construct: His (N); made in house; host or cells: Escherichia coli BL21-CodonPlus(DE3)-RIL
T1 sequence (O14965 1-403): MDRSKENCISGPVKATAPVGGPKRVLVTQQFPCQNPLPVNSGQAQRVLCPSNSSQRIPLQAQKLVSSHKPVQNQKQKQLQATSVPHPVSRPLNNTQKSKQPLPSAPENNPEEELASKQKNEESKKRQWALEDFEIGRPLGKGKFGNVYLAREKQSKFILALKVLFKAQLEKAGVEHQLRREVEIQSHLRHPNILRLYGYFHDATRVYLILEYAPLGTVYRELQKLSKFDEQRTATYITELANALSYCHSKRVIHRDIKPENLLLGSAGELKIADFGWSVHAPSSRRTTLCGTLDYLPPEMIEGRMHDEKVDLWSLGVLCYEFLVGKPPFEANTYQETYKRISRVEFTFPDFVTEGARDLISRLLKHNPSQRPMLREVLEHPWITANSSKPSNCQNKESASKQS

[3] = target: T2, GST-tagged human Aurora B(AurB)/His-tagged human INCENP complex proteins (Homo sapiens, UniProt Q96GD4); assay: Aurora B inhibitory activity (Method A, IMAP assay kit); format: biochemical; conditions: 40 μM ATP, 25° C., 45 minutes
T2 construct: GST; purchased Carna Biosciences, Inc
T2 sequence (Q96GD4 whole entry): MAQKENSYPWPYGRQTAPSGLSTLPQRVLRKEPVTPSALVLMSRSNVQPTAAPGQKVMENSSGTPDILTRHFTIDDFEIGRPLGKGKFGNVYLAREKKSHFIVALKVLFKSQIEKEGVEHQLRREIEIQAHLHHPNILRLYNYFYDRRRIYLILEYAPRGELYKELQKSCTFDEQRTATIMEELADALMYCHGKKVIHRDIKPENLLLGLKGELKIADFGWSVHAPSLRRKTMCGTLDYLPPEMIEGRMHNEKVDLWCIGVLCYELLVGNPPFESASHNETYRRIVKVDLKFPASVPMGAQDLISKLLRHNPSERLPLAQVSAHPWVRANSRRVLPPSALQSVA
T2 sequence (Q9NQS7 803-916 partner limits assumed): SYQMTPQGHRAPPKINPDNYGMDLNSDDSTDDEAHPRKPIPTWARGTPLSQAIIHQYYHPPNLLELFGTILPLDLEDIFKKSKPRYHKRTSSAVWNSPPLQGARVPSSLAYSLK

[4] = system: Human cervical cancer cells (HeLa S3); assay: Cell growth inhibitory effect, WST-8 method; format: cell-based; conditions: Homo sapiens, 72 h; HeLa S3, three days incubation; read-out: Cell growth inhibitory effect (HeLaS3) (IC50)
Method: Fetal calf serum (FCS) was purchased from Moregate Biotech, and DMEM medium was purchased from Invitrogen Corp. WST-8 was purchased from Kishida Chemical Co., Ltd.
as §1
Cells were suspended in a DMEM medium containing 10% FCS, and the cell suspension was dispensed to a 96-well plastic plate at a rate of 750 cells/100 microliters per well. The plate was incubated overnight in 5% CO2-95% air at 37° C. A drug was subjected to graded dilution in dimethylsulfoxide and further diluted with a DMEM medium containing 10% FCS. Then, the dilution was dispensed to the plate on which cells had been disseminated in advance, at a rate of 100 microliters per well. The plate was incubated for further three days in 5% CO2-95% air at 37° C. Cell growth after incubation was measured by the WST-8 method (H. Tominaga, et al., Anal. Commun., 36, 47-50 (1999)). Here, the WST-8 method refers to a method in which 20 microliters of a WST-8 reagent solution is added to each well, incubation is conducted at 37° C. for 60 minutes, the plate is stirred, and the amount of formazan produced is measured by a […] method to determine the inhibitory rate of the drug.

[5] = Homo sapiens, HeLa S3, 72 h, read-out: Cell growth inhibitory effect by sole administration of the compound of Example (%)
[6] = compound 0.3 μM + docetaxel 0.3 nM
[7] = compound 1.0 μM + docetaxel 0.3 nM
[8] = compound 0.1 μM + docetaxel 0.3 nM

| IC50 [2] [nM] | IC50 [3] [nM] | IC50 [4] [nM] | Compound | inhibition at 0.3 µM [1, 5] [%] | inhibition at 1 µM [1, 5] [%] | Cell growth inhibitory effect by combined administration of docetaxel and the compound of Example (%) [1, 6] [%] | Cell growth inhibitory effect by combined administration of docetaxel and the compound of Example (%) [1, 7] [%] | inhibition at 0.1 µM [1, 5] [%] | Cell growth inhibitory effect by combined administration of docetaxel and the compound of Example (%) [1, 8] [%] | inhibition at 0.03 µM ([1]; Homo sapiens, HeLa S3, 72 h, compound 0.03 μM alone, read-out: Cell growth inhibitory effect by sole administration of the compound of Example (%)) [%] | Cell growth inhibitory effect by combined administration of docetaxel and the compound of Example (%) ([1]; compound 0.03 μM + docetaxel 0.3 nM) |
| --- | --- | --- | --- | --- | --- | --- | --- | --- | --- | --- | --- |
| 0.07 | 37 | 1930 | Cl.O=C(O)[C@]1(Cc2cccc(Nc3nccs3)n2)CC[C@@H](Oc2cccc(Cl)c2Cl)CC1 [Example 6, trans-4-(2,3-dichlorophenoxy)-1-((6-(1,3-thiazol-2-ylamino)pyridin-2-yl)methyl)cyclohexanecarboxylic acid hydrochloride] | 7.2 | 25.6 | 70.0 | 87.0 | – | – | – | – |
| 2 | 870 | 1760 | NC(=O)[C@]1(Cc2cncc(Nc3cc[nH]n3)n2)CC[C@@H](Oc2cccc(Cl)c2F)CC1 [Example 15, trans-4-(3-chloro-2-fluorophenoxy)-1-((6-(1H-pyrazol-3-ylamino)pyrazin-2-yl)methyl)cyclohexanecarboxamide] | 17 | 42.4 | 76.4 | 90.8 | – | – | – | – |
| 0.43 | 370 | 1130 | O=c1[nH]nc([C@]2(Cc3cccc(Nc4cc[nH]n4)n3)CC[C@@H](S(=O)(=O)c3cccc(Cl)c3Cl)CC2)o1 [Example 36, 5-(trans-4-((2,3-dichlorophenyl)sulfonyl)-1-((6-(1H-pyrazol-3-ylamino)pyridin-2-yl)methyl)cyclohexyl)-1,3,4-oxadiazol-2(3H)-one trifluoroacetate] | 32 | – | 88.9 | – | 2.6 | 76.8 | – | – |
| 0.31 | 120 | 220 | O=c1[nH]nc([C@]2(Cc3cccc(Nc4cc[nH]n4)n3)CC[C@@H]([S+]([O-])c3cccc(Cl)c3Cl)CC2)o1 (stereo partly drawn) [Example 35, 5-(trans-4-((2,3-dichlorophenyl)sulfinyl)-1-((6-(1H-pyrazol-3-ylamino)pyridin-2-yl)methyl)cyclohexyl)-1,3,4-oxadiazol-2(3H)-one trifluoroacetate] | – | – | – | – | 42.7 | 89.9 | 25.1 | 78.0 |
| 1.8 | 750 | 2800 | NC(=O)[C@]1(Cc2cccc(Nc3cc[nH]n3)n2)CC[C@@H](Oc2cccc(Cl)c2F)CC1 [Example 11, trans-4-(3-chloro-2-fluorophenoxy)-1-((6-(1H-pyrazol-3-ylamino)pyridin-2-yl)methyl)cyclohexanecarboxamide] | 15.1 | 25.4 | 72.1 | 84.5 | – | – | – | – |
| 0.54 | 150 | 1260 | NC(=O)[C@]1(Cc2cccc(Nc3nccs3)n2)CC[C@@H](Oc2cccc(Cl)c2F)CC1 [Example 8, trans-4-(3-chloro-2-fluorophenoxy)-1-((6-(1,3-thiazol-2-ylamino)pyridin-2-yl)methyl)cyclohexanecarboxamide] | 12.2 | 49 | 84.6 | 95.0 | – | – | – | – |
| 1 | 660 | 900 | O=c1[nH]nc([C@]2(Cc3cccc(Nc4cc[nH]n4)n3)CC[C@@H](Oc3cccc(C(F)(F)F)c3F)CC2)o1 [Example 20, 5-(trans-4-(2-fluoro-3-(trifluoromethyl)phenoxy)-1-((6-(1H-pyrazol-3-ylamino)pyridin-2-yl)methyl)cyclohexyl)-1,3,4-oxadiazol-2(3H)-one] | 25.9 | 49.8 | 85.0 | 94.4 | – | – | – | – |
